Laboratory results from patent publication US20150080475A1, “Memantine Protects Inflammation-Related Degeneration of Dopamine Neurons Through Inhibition of Over-Activated Microglia and Release of Neurotrophic Factors From Astroglia” (priority 2009, published 2015).

System: DA neurons
Assay: MPP+-induced reduction in DA uptake in neuron-enriched cultures
Type: cell-based
Details: MPP+ 0.25 μM, seven days, neuron-enriched cultures
Procedure: Mesencephalic neuron-glia cultures were seeded (5×10^5/well) in 24 well plates precoated with poly D-lysine. Thirty-six hours postseeding, 5-10 μM cytosine β-D-arabinofuranoside was added to the culture. After 2 days, the cytosine β-D-arabinofuranoside was removed and replaced with fresh media. Neuron-enriched cultures are 98% pure, as indicated by ICC staining with OX-42 and GFAP antibodies. Neuron-enriched cultures were treated 7 days post-seeding. For microglia add-back cultures, the microglia were plated on top of the neuron-enriched culture at 6 days postseeding, resulting in the addition of either 10% (500 μL of 1×10^5) or 20% (500 μL of 2×10^5) microglia. […]
Cells were incubated in Krebs-Ringer buffer (16 mM NaH2PO4, 1.2 mM MgSO4, 1.3 mM EDTA, […], for 21 min at 37° C. with 1 μM [^3H] DA. Nonspecific uptake was blocked for DA with 10 μM mazindole. After incubation, cells were washed three times with 1 mL/well of ice-cold Krebs-Ringer buffer. Cells were then lysed with 0.5 mL/well of 1 N NaOH and mixed with 15 mL of scintillation fluid. Radioactivity was measured on a scintillation counter, where specific [^3H] DA uptake was calculated by subtracting the mazindole.
To determine whether the neuroprotective effect of MMT was dependent on the presence of glial cells, the effects of MMT on the neuron-enriched cultures were determined. […]

C[n+]1ccc(-c2ccccc2)cc1 [MPP^+]
reduction of DA uptake compared with control cultures: 31%
